Measurements published in article PMC9599717, “The Multicellular Effects of VDAC1 N-Terminal-Derived Peptide” (Biomolecules, 2022).
pKd: −log10 of the molar value.

Key:
[1] = test system: MEC-1 (human B-cell chronic lymphocytic leukemia); test: Cell death by PI staining and flow cytometry (FACS), MEC-1; assay type: cell-based; settings: MEC-1 cells, 1.5 h
Method: MEC-1 cells were incubated in a serum-free medium with various concentrations of VDAC1-based peptides for 1.5 h at room temperature (RT), collected by centrifugation, washed with phosphate-buffered saline (PBS), and analyzed for cell death. Adherent cancer cells were seeded in culture plates and allowed to adhere overnight in a sterile cell culture incubation chamber maintained at 37 °C and 5% CO2. The next day, media was removed from the plates, and cells were treated with various concentrations of VDAC1-based peptides for the indicated time in serum-free Dulbecco’s Modified Eagle Medium (DMEM) with and without DMSO (final 0.15%) as a control for 6 h at 37 °C and 5% CO2. Cells were trypsinized, centrifuged (1500× g, 5 min), and washed with PBS.
Cell death was analyzed by the propidium iodide (PI) staining, followed by flow cytometry with the iCyt sy3200 Benchtop Cell Sorter/Analyzer and analysis with EC800 v 1.3.7 software (Sony Biotechnology Inc., San Jose, CA, USA). Apoptosis was analyzed by PI and annexin V-FITC staining, which was carried out according to the manufacturer’s instructions with minor modifications. […] Next, cells were washed and PI (6.25 μg/mL), was added immediately before flow cytometry At least 10,000 events were collected, recorded on a dot plot, and analyzed by flow cytometry. […]

[2] = biological target: VDAC1; test: Microscale thermophoresis (MST) binding to fluorescently labeled purified VDAC1; settings: fluorescently labeled purified VDAC1 (138 nM); actin 10–500 nM, tubulin 20–2000 nM; 10 mM Tricine pH 7.4, 100 mM NaCl; read-out: Kd of interaction with VDAC1 (MST)
Method: Purified VDAC1 was fluorescently labeled using the NanoTemper Protein-Labeling Blue Kit. Fluorescently labeled VDAC1 was incubated with different concentrations of actin, tubulin, or peptides in 10 mM Tricine buffer (pH 7.4) containing 100 mM NaCl. After a 20-min incubation, 8–10 μL aliquots were loaded into microscale thermophoresis (MST) grade glass capillaries (NanoTemper Technologies, Munich, Germany), and thermophoresis was measured with the NanoTemper Monolith-NT115 system (20/40% light-emitting diode, 40% infrared laser power).
Figure 5 D-Δ(1-18)N-Ter-Antp altered actin filament organization (A,B) U-87MG cells were cultured and incubated for 24 h with D-Δ(1-18)N-Ter-Antp (10 µM). Cells were stained for actin using Phalloidin-488 and visualized by confocal microscopy (A) and quantified for Phalloidin-488 staining intensity (B). The results were from triplicates of different biological repeats and are presented as the means ± SEM. * p ≤ 0.05; ** p ≤ 0.01. (C) Maximum intensity projection of super-resolution (SIM) microscopy image. […] (D) Actin interaction with VDAC1 analyzed using the MST method. […] (E) In vitro G-actin polymerization was monitored, as described in the Method section. […]
Figure 6 D-Δ(1-18)N-Ter-Antp altered tubulin filament organization. […] Quantification of tubulin staining intensity (B). […] (D) Tubulin (20–2000 nM) interaction with VDAC1 analyzed using the MST method.

pKd [2]	Substance	Maximal cell death (at the concentration for maximal cell death) [1] [%]
	11-GKSARDVFTKGYGFGL-26- RRMKWKK [Δ(1-10)N-Ter-min-Antp, VDAC1 N-terminal residues 11-26 fused to minimal Antp]	20
7.52	actin	
